Experimental findings from PubChem BioAssay (NCI) are described below.

Structures are written as SMILES.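 Protocol summary: plate cells (96-well), add compound at 5 concentrations, incubate 48 h, interpolate endpoints linearly. At the GI50, growth is halved. TGI is the concentration that stops growth completely.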

Among the test systems are EKVX NSCLC; OVCAR-8 ovarian; HT29 colon; HOP-62 NSCLC; SR leukemia; U251 CNS; LOX IMVI melanoma; UACC-257 melanoma; HCT-116 colon; HL-60(TB) leukemia; HS 578T breast.
What all share (test): DTP human tumour cell line panel, 48 h

For the compound `Cc1cccc2[s+]snc12`, the TGI with EKVX NSCLC was above 77.4 µM; in the assay with OVCAR-8 ovarian it was above 63.7 µM; with HT29 colon it was above 100 µM; with HOP-62 NSCLC, above 100 µM; in the assay with SR leukemia, 77.8 µM; with U251 CNS, above 100 µM. The TGI was above 100 µM in the assay on LOX IMVI melanoma, above 100 µM with UACC-257 melanoma, above 100 µM in the assay with HCT-116 colon and 41.8 µM in the assay on HL-60(TB) leukemia.
On to `CCOC(=O)/C(C#N)=C1\c2c([nH]c(=S)[nH]c2=O)Oc2ccc3ccccc3c21`, for which the concentration for total growth inhibition (TGI) in the assay with EKVX NSCLC, in the assay with OVCAR-8 ovarian, in the assay with HT29 colon, in the assay with HOP-62 NSCLC, in the assay on SR leukemia and in the assay with U251 CNS was above 100 µM throughout. Further, the total growth inhibition concentration (TGI) with LOX IMVI melanoma is above 100 µM; with UACC-257 melanoma it was above 100 µM; with HCT-116 colon, above 100 µM; in the assay on HL-60(TB) leukemia, 4.56 µM; in the assay with HS 578T breast it was above 100 µM.
For `NC(=O)C(c1ccccc1)N1OC2C(=O)N(c3cccc4ccccc34)C(=O)C2C1c1c2ccccc2c(Cl)c2ccccc12` (stereo unspecified), the TGI stood at 30 µM in the assay on EKVX NSCLC; 19.4 µM in the assay on OVCAR-8 ovarian; 14.7 µM in the assay with HT29 colon; 27.8 µM in the assay with HOP-62 NSCLC; 3.8 µM in the assay on SR leukemia; 15.9 µM with U251 CNS. In addition, the total growth inhibition concentration (TGI) with LOX IMVI melanoma is 13.6 µM; in the assay on UACC-257 melanoma, 15.7 µM; in the assay with HCT-116 colon, 3.05 µM; in the assay on HL-60(TB) leukemia, 11.2 µM; in the assay with HS 578T breast it was above 50 µM.
For `CCC(=O)NC(Nc1ccc(O)cc1)(C(F)(F)F)C(F)(F)F`, the total growth inhibition concentration (TGI) in the assay on EKVX NSCLC, with HT29 colon, in the assay with HOP-62 NSCLC, in the assay on SR leukemia, with U251 CNS and in the assay with LOX IMVI melanoma was above 100 µM throughout. The TGI is above 100 µM with UACC-257 melanoma, above 100 µM in the assay with HCT-116 colon, 46.5 µM in the assay with HL-60(TB) leukemia and above 100 µM in the assay with HS 578T breast.
On to `C/C(=N/O)c1cccc(Nc2nc3ccc(Cl)cc3c3[nH]c4ccccc4c23)c1`, for which the TGI in the assay with OVCAR-8 ovarian was 7.77 µM; in the assay on HT29 colon, 5.36 µM; with HOP-62 NSCLC it was 6.99 µM; in the assay on SR leukemia, above 100 µM; with U251 CNS it was 9.94 µM; with LOX IMVI melanoma it was 5.73 µM. Moreover, the TGI with UACC-257 melanoma was found to be 12.1 µM; with HCT-116 colon, 2.66 µM; in the assay with HL-60(TB) leukemia it was 6.78 µM; in the assay with HS 578T breast it was 7.09 µM.
As for `NNc1nc2ccccc2s1`, the TGI in the assay on EKVX NSCLC, in the assay with OVCAR-8 ovarian, in the assay on HT29 colon, with SR leukemia, in the assay on U251 CNS and with LOX IMVI melanoma was above 100 µM each time. Moreover, the TGI with UACC-257 melanoma, with HCT-116 colon, with HL-60(TB) leukemia and in the assay with HS 578T breast was above 100 µM each time.
In the case of `CCC1=CC2Cc3nc4cc(Cl)ccc4c(N)c3C(C1)C2` (stereo unspecified), the concentration for total growth inhibition (TGI) with EKVX NSCLC is 11.6 µM; in the assay with OVCAR-8 ovarian it was above 49.9 µM; in the assay on HT29 colon, 10.8 µM; in the assay with HOP-62 NSCLC it was 22.5 µM; in the assay with U251 CNS it was 25.3 µM; in the assay with LOX IMVI melanoma it was 19.2 µM. Further, the TGI is 4.72 µM with UACC-257 melanoma, 9.77 µM with HCT-116 colon, 7.42 µM with HL-60(TB) leukemia and 13.1 µM in the assay on HS 578T breast.
Take `NC(N)=N/N=C/c1c(-c2ccc([N+](=O)[O-])cc2)nc2n1CCS2`: the total growth inhibition concentration (TGI) in the assay with EKVX NSCLC came to 37.8 µM; in the assay with OVCAR-8 ovarian it was 29.2 µM; with HT29 colon it was 31 µM; in the assay on HOP-62 NSCLC, 61.5 µM; with SR leukemia, 5.71 µM; in the assay with U251 CNS, 6.49 µM. Besides, the TGI worked out at 35 µM in the assay on LOX IMVI melanoma; 35.6 µM with UACC-257 melanoma; 23 µM with HCT-116 colon; 25.1 µM in the assay on HL-60(TB) leukemia; 39.1 µM in the assay with HS 578T breast.
In the case of `O=[N+]([O-])c1ccc(Nc2nc3ccccc3s2)cc1`, the TGI in the assay with EKVX NSCLC was 40.4 µM; with OVCAR-8 ovarian, above 100 µM; in the assay with HT29 colon, above 100 µM; in the assay with HOP-62 NSCLC, above 100 µM; in the assay with SR leukemia it was 34.5 µM; in the assay with U251 CNS it was 39.3 µM. In addition, the TGI in the assay on LOX IMVI melanoma was 38.9 µM; in the assay on UACC-257 melanoma it was 75.6 µM; in the assay on HS 578T breast it was above 100 µM.
For the compound `CC1=CC(=O)C(=O)C2=C1OC1(C2)C(C)CCC2C3(C)CCC(O)C(C)(C)C3CCC21C` (stereo unspecified), the total growth inhibition concentration (TGI) was 44.7 µM with OVCAR-8 ovarian; 40.1 µM with HT29 colon; 35 µM in the assay with HOP-62 NSCLC; above 100 µM in the assay with SR leukemia; 29.9 µM in the assay with U251 CNS; 35.8 µM in the assay with LOX IMVI melanoma. Moreover, the TGI with UACC-257 melanoma stood at 34.3 µM; in the assay on HCT-116 colon, 30.2 µM; with HL-60(TB) leukemia, 5.51 µM.
Take `N=C(N)c1csc([C@@H]2O[C@H](CO)[C@@H](O)[C@H]2O)n1`: the TGI in the assay on EKVX NSCLC, in the assay on OVCAR-8 ovarian, with SR leukemia, with U251 CNS, with LOX IMVI melanoma and with UACC-257 melanoma was above 100 µM in each case. In addition, the TGI in the assay with HCT-116 colon and in the assay with HL-60(TB) leukemia was above 100 µM in each case.
In the case of `COc1ccc2c(c1)N=C1CSC(c3cccc(Br)c3)N1C2` (stereo unspecified), the total growth inhibition concentration (TGI) in the assay with EKVX NSCLC was 33.8 µM; in the assay with OVCAR-8 ovarian, above 100 µM; in the assay with HT29 colon, 31.9 µM; in the assay on HOP-62 NSCLC, 56.2 µM; in the assay on SR leukemia, 23.1 µM; in the assay with U251 CNS, 44.3 µM. Also, the concentration for total growth inhibition (TGI) in the assay with LOX IMVI melanoma was 50 µM; in the assay on UACC-257 melanoma it was 24.3 µM; with HCT-116 colon, 28.6 µM; in the assay with HL-60(TB) leukemia it was 29.6 µM; with HS 578T breast, 96.7 µM.
On to `CC12CCC(C(=O)N3CC=CCC3)(OC1=O)C2(C)C` (stereo unspecified), for which the TGI in the assay on EKVX NSCLC, in the assay with OVCAR-8 ovarian, in the assay on HT29 colon, in the assay on HOP-62 NSCLC, in the assay with U251 CNS and in the assay on LOX IMVI melanoma was above 100 µM throughout. Moreover, the TGI in the assay with UACC-257 melanoma, in the assay with HCT-116 colon and with HL-60(TB) leukemia was above 100 µM in each case.
With `c1cn2cc(-c3ccc4ncn(C5CCCCC5)c4c3)nc(-c3ccc4c(c3)ncn4C3CCCCC3)c2n1`, the GI50 in the assay with OVCAR-8 ovarian is 2.55 µM; with HT29 colon it was 2.44 µM; with HOP-62 NSCLC, 2 µM; in the assay on SR leukemia it was 2.87 µM; in the assay with U251 CNS, 1.91 µM; with UACC-257 melanoma it was 2.1 µM. Besides, the GI50 in the assay on HL-60(TB) leukemia is 1.84 µM; in the assay with HS 578T breast, 2.39 µM. Further, the total growth inhibition concentration (TGI) was 9.49 µM with OVCAR-8 ovarian; 5.2 µM in the assay with HT29 colon; 3.72 µM in the assay on HOP-62 NSCLC; above 100 µM with SR leukemia; 3.65 µM in the assay on U251 CNS; 3.62 µM in the assay on UACC-257 melanoma. Further, the TGI with HL-60(TB) leukemia was determined as 4.57 µM; in the assay with HS 578T breast, 6.74 µM.
Take `O=C1C(=O)c2ccccc2C(O)=C1CN(CCCl)CCCl`: the TGI in the assay with EKVX NSCLC, with OVCAR-8 ovarian, in the assay on HT29 colon, in the assay with HOP-62 NSCLC, in the assay on SR leukemia and in the assay with U251 CNS was above 100 µM each time. For the same compound, the TGI in the assay with HCT-116 colon and in the assay with HL-60(TB) leukemia was above 100 µM in each case.
On to `COc1cc(C2=C(C#N)C(N)OC3=C2COc2ccccc23)cc(OC)c1OC` (stereo unspecified), for which the concentration for total growth inhibition (TGI) in the assay with EKVX NSCLC was 43.7 µM; in the assay with HT29 colon it was above 100 µM; in the assay with HOP-62 NSCLC, 20.2 µM; in the assay with SR leukemia, above 100 µM; in the assay on U251 CNS it was 33.2 µM; with LOX IMVI melanoma, above 100 µM. Also, the values for the total growth inhibition concentration (TGI) in the assay with UACC-257 melanoma, in the assay on HCT-116 colon and in the assay with HL-60(TB) leukemia were above 100 µM, 43.5 µM and above 100 µM, respectively.
Consider `Nc1ccc2c3c(n(CCCCl)c(=O)c2c1)-c1cc2c(cc1C3=O)OCO2`, for which the GI50 with OVCAR-8 ovarian was above 100 µM; in the assay on HT29 colon, above 100 µM; with SR leukemia, 0.0268 µM; with U251 CNS, above 100 µM; in the assay on LOX IMVI melanoma, above 100 µM; with UACC-257 melanoma it was above 100 µM. Besides, the GI50 in the assay on HL-60(TB) leukemia is above 100 µM. In addition, the TGI in the assay on OVCAR-8 ovarian, in the assay with HT29 colon, in the assay with SR leukemia, with U251 CNS, with LOX IMVI melanoma and with UACC-257 melanoma was above 100 µM each time. Further, in the assay on HL-60(TB) leukemia, the TGI is above 100 µM.
Take `COC1CC(OC2CCC3(C)C(CCC45CCC(C6=CC(=O)OC6)C(C)(CCC43)C5=O)C2)OC(C)C1O` (stereo unspecified): the TGI with EKVX NSCLC is above 100 µM; with OVCAR-8 ovarian it was above 100 µM; in the assay on HT29 colon it was above 100 µM; with HOP-62 NSCLC, 51.3 µM; in the assay on SR leukemia, 71.8 µM; with U251 CNS, above 100 µM. Moreover, the TGI is above 100 µM in the assay on LOX IMVI melanoma; above 100 µM in the assay on UACC-257 melanoma; above 100 µM with HCT-116 colon; 43.7 µM in the assay on HL-60(TB) leukemia; above 100 µM in the assay with HS 578T breast.
Regarding `O=C(O)C1Cc2c([nH]c3ccccc23)C=N1` (stereo unspecified), the TGI with EKVX NSCLC, in the assay with OVCAR-8 ovarian, with HT29 colon, in the assay with HOP-62 NSCLC, in the assay on U251 CNS and in the assay with LOX IMVI melanoma was above 100 µM in each case. In addition, the TGI in the assay on UACC-257 melanoma, in the assay on HCT-116 colon and with HL-60(TB) leukemia was above 100 µM each time.
`NC(CCP(=O)(O)CCC1C=CC=CC1)C(=O)O` (stereo unspecified): the TGI in the assay with EKVX NSCLC, with OVCAR-8 ovarian, with HT29 colon, in the assay on SR leukemia, in the assay with U251 CNS and with LOX IMVI melanoma was above 100 µM in each case. Further, the concentration for total growth inhibition (TGI) in the assay on UACC-257 melanoma, in the assay on HCT-116 colon, in the assay with HL-60(TB) leukemia and in the assay with HS 578T breast was above 100 µM each time.

A word on the TGI: it is the concentration giving total growth inhibition. A lower TGI goes with greater sensitivity of the cells. What is called GI50 is the concentration at which growth is held to half of that of the control.
